Laboratory results from ChEMBL document CHEMBL2331553, “Discovery of N-[[1-[2-(tert-butylcarbamoylamino)ethyl]-4-(hydroxymethyl)-4-piperidyl]methyl]-3,5-dichloro-benzamide as a selective T-type calcium channel (Cav3.2) inhibitor” (Bioorg Med Chem Lett, 2013).
Converted amounts (≈) assume the structure as drawn.

Legend:
[1] = target: T1, Voltage-dependent T-type calcium channel subunit alpha-1H (Homo sapiens, UniProt O95180); assay: Inhibition of human T-type calcium channel Cav3.2 expressed in T-Rex293 cells by whole cell patch clamp assay; format: cell-based, HEK293
[2] = Ratio of unbound concentration in brain to unbound concentration in plasma in Sprague-Dawley rat at 2 umol/kg/hr, iv administered as infusion measured after 4 hrs; format: ADME, organism-based; details: brain and plasma (unbound concentrations), read-out: K(p,uu,brain)
Liver microsomes = assay: Drug metabolism in human liver microsomes assessed as glutathione-adduct reactive metabolite formation at 1 mg/ml after 30 mins; format: ADME, Microsome; details: 0.5 h
Cytochrome P450 2D6 = Cytochrome P450 2D6 (Homo sapiens, UniProt P10635); assay: Inhibition of human recombinant CYP2D6-mediated 7-methoxy-4(aminomethyl)-coumarine degradation; format: ADME
[3] = Intrinsic clearance in human liver microsomes at 1 mg/ml after 45 mins; format: ADME, Microsome; details: read-out: CLH
[4] = target: Voltage-gated inwardly rectifying potassium channel KCNH2 (Homo sapiens, UniProt Q12809); assay: Inhibition of human ERG expressed in CHO cells by IONWORKS assay; format: cell-based
Canis familiaris = assay: Cardioprotective activity in iv dosed beagle dog atrial fibrillation model assessed as reduction in heart rate administered as infusion for over 20 mins followed by 60-mins washout period by ECG analysis relative to control; format: functional, organism-based; details: Canis lupus familiaris
[5] = Oral bioavailability in beagle dog at 3 mg/kg; format: ADME, organism-based, Canis lupus familiaris; details: in vivo
[6] = Clearance in beagle dog at 1 mg/kg, iv; format: ADME, organism-based, Canis lupus familiaris; design: dose 1 mg/kg, route intravenous; details: in vivo
[7] = Solubility of the compound at pH 7.4; format: physicochemical; details: buffer
[8] = target: T2, A-type voltage-gated potassium channel KCND3 (Homo sapiens, UniProt Q9UK17); assay: Inhibition of human Kv4.3 channel expressed in CHO cells by IONWORKS patch clamp assay; format: cell-based
T2 sequence (Q9UK17 whole entry): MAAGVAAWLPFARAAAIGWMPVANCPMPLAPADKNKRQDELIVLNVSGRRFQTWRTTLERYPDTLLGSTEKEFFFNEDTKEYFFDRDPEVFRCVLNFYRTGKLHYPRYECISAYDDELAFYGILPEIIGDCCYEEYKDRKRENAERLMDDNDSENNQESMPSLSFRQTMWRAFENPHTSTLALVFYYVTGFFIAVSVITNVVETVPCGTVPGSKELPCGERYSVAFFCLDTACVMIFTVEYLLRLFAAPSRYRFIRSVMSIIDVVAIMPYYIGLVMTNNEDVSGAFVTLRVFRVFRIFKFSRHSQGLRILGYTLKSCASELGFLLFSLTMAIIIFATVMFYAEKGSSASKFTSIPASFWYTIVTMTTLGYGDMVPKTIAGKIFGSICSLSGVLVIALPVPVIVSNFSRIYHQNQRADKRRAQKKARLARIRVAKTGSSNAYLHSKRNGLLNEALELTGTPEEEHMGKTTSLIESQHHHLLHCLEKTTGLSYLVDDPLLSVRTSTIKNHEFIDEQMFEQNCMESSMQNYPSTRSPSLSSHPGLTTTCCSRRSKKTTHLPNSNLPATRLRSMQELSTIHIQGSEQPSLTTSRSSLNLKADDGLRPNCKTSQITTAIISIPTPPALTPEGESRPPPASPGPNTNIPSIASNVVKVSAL

[9] = target: Voltage-gated potassium channel, IKs; KCNQ1(Kv7.1)/KCNE1(MinK) (Homo sapiens, UniProt P15382+P51787); assay: Inhibition of human IKs channel expressed in CHO cells by IONWORKS patch clamp assay; format: cell-based
[10] = target: T3, Potassium/sodium hyperpolarization-activated cyclic nucleotide-gated channel 4 (Homo sapiens, UniProt Q9Y3Q4); assay: Inhibition of human HCN4 channel expressed in CHO cells by IONWORKS patch clamp assay; format: cell-based
T3 sequence (Q9Y3Q4 whole entry): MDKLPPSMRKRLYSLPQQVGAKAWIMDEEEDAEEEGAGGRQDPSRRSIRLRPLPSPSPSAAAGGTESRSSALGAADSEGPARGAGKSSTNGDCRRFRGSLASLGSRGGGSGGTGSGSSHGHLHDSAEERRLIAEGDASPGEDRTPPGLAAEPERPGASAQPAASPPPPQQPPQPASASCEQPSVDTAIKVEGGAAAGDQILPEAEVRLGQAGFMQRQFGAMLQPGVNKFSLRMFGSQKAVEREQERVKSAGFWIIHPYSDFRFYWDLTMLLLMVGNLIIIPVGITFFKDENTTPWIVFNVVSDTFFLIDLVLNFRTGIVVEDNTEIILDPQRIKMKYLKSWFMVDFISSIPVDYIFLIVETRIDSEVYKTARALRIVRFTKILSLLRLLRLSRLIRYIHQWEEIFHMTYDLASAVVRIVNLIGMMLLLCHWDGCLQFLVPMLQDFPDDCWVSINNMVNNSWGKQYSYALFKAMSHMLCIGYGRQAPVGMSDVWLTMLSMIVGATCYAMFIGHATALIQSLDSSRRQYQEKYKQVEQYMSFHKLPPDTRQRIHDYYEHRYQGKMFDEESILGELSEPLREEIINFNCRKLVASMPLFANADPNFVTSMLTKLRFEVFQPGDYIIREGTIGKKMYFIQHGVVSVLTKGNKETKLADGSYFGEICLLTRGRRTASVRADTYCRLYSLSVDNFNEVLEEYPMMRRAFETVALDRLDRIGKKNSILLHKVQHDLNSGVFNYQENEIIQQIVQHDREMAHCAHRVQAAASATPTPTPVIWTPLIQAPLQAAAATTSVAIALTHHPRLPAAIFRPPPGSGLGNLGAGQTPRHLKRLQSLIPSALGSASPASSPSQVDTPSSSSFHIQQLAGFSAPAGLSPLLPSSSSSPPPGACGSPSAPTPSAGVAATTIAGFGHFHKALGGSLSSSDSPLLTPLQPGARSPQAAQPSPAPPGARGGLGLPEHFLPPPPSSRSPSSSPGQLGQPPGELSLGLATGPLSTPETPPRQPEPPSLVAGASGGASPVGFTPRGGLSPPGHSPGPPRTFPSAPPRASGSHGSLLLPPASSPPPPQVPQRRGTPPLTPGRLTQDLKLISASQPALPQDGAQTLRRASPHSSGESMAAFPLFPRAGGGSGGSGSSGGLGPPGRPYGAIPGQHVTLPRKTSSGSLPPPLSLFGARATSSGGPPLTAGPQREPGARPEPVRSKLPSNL

[11] = target: Sodium channel protein type 5 subunit alpha (Homo sapiens, UniProt Q14524); assay: Inhibition of human Nav1.5 channel expressed in CHO cells by IONWORKS patch clamp assay; format: cell-based
[12] = target: Voltage-dependent L-type calcium channel subunit alpha-1C (Homo sapiens, UniProt Q13936); assay: Inhibition of calcium channel Cav1.2 (unknown origin) expressed in CHO cells by IONWORKS patch clamp assay; format: cell-based
[13] = target: T1, Voltage-dependent T-type calcium channel subunit alpha-1H; assay: Inhibition of T-type calcium channel Cav3.2 (unknown origin) by IONWORKS assay

Chain of Cytochrome P450 2D6 (P10635 whole entry): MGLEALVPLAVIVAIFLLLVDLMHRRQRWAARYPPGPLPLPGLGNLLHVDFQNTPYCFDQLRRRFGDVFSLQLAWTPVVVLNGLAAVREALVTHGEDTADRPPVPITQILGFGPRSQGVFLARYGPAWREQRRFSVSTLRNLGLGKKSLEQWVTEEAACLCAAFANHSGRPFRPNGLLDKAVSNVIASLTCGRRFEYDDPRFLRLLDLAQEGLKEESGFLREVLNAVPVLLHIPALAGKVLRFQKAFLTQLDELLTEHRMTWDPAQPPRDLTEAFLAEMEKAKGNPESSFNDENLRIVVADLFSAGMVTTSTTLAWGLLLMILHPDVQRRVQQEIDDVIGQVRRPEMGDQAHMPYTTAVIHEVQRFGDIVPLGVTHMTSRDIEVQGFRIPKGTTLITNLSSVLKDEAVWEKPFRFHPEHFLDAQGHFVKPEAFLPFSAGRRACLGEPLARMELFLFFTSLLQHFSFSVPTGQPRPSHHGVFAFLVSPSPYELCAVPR
Chain of Voltage-gated inwardly rectifying potassium channel KCNH2 (Q12809 whole entry, the tested form may be a part): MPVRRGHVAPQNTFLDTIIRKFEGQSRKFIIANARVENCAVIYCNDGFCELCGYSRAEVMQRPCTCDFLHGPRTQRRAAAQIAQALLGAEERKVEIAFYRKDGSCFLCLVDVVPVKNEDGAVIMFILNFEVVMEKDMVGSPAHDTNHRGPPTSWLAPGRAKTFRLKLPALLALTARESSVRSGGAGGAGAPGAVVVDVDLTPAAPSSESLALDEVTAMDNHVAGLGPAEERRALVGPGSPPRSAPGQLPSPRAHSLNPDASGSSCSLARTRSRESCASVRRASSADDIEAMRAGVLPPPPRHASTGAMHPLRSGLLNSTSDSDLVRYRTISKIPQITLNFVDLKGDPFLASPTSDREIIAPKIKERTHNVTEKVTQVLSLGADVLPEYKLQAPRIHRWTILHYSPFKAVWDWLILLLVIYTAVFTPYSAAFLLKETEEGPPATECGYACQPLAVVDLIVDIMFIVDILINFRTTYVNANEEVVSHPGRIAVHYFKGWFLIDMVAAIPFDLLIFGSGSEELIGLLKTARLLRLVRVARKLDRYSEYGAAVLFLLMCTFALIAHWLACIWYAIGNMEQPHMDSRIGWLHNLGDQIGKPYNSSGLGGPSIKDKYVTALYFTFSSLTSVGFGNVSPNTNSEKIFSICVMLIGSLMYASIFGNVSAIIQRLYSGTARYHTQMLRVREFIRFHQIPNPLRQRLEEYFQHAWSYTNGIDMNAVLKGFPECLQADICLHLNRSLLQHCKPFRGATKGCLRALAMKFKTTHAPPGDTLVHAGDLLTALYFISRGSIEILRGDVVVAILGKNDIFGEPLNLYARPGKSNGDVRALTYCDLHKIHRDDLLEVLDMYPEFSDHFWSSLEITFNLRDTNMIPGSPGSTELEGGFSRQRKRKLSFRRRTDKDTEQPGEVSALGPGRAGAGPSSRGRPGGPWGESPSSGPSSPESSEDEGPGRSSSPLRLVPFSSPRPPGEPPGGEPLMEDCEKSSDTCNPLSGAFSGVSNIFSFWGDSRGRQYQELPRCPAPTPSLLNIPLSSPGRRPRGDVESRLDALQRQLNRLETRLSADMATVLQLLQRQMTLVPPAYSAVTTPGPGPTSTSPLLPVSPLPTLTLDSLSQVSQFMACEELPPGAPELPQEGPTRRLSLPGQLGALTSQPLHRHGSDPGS
T1 sequence (O95180 whole entry, the tested form may be a part): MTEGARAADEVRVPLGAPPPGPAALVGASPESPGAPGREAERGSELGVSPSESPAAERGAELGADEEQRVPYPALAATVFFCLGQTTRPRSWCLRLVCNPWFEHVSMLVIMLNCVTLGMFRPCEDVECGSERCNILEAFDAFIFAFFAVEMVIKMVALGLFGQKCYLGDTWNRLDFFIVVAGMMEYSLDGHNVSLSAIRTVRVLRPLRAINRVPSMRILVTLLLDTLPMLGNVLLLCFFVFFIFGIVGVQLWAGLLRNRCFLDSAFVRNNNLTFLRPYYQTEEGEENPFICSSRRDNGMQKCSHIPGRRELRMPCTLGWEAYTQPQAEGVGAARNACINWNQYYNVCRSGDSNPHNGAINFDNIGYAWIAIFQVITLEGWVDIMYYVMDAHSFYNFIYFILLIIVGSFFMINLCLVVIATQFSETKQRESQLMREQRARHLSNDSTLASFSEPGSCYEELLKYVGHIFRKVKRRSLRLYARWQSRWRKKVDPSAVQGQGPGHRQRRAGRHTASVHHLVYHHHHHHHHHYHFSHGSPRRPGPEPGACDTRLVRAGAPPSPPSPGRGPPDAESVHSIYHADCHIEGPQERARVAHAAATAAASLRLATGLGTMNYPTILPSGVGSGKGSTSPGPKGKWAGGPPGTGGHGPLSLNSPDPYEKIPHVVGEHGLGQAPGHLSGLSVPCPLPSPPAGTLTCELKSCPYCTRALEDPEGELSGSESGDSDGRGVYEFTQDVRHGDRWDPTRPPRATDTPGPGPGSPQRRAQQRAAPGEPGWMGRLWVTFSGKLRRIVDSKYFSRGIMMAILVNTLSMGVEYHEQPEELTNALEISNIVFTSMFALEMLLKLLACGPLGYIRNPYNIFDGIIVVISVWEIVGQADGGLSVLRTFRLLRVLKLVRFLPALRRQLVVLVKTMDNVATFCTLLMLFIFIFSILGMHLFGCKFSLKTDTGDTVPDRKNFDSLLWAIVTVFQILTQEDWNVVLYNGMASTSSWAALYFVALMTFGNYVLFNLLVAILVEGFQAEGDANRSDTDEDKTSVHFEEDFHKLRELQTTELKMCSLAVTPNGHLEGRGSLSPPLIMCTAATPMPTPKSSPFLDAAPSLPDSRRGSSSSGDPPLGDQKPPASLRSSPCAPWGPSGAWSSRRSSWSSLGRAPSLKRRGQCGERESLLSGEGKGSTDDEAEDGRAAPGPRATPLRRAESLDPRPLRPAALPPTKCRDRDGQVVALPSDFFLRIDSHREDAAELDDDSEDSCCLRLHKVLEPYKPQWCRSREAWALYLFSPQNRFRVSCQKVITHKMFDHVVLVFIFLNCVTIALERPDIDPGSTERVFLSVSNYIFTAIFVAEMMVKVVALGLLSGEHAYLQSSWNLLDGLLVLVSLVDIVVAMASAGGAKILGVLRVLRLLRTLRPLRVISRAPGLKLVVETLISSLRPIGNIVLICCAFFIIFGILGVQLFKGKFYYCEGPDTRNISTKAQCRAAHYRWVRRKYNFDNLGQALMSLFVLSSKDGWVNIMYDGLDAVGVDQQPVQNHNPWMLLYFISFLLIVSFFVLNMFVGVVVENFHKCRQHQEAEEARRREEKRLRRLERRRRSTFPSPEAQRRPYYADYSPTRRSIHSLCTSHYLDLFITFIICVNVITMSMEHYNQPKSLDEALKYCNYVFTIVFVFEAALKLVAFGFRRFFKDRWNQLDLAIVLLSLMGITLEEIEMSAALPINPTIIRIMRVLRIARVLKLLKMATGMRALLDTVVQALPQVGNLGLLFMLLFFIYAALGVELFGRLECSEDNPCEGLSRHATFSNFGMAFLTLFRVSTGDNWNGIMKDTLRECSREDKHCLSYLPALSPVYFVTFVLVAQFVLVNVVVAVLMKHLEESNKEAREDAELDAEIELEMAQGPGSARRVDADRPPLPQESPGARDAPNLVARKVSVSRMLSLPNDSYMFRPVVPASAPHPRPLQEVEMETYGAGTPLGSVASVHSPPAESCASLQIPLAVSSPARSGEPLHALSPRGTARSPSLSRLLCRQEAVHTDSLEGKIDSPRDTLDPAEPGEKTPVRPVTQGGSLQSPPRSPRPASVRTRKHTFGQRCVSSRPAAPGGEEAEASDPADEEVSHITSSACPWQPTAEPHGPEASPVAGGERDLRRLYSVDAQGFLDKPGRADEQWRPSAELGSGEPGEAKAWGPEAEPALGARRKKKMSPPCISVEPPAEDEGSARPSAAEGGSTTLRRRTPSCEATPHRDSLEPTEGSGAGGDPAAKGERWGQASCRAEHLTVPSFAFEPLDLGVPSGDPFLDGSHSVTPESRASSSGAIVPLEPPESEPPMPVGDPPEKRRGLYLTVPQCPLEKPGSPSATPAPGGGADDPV
Chain of Voltage-gated potassium channel, IKs; KCNQ1(Kv7.1)/KCNE1(MinK) (P51787 whole entry): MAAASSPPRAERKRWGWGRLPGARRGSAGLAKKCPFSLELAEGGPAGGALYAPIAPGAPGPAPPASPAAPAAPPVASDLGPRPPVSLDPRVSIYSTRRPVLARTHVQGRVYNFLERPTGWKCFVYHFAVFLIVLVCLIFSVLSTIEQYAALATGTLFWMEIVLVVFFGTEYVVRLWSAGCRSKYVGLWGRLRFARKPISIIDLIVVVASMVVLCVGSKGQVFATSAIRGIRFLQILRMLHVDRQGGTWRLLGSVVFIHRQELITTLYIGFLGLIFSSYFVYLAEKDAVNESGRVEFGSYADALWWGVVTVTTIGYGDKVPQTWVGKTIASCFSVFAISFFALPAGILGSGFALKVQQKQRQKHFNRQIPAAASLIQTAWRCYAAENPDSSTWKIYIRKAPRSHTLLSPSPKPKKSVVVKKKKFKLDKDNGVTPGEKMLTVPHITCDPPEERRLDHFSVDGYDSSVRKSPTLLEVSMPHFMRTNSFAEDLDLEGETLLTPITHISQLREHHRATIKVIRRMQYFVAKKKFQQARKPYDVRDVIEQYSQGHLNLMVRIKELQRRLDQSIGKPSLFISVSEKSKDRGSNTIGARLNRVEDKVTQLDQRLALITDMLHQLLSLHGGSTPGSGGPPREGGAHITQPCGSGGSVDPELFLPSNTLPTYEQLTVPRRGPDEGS

Compound | IC50 [1] | Drug metabolism (Liver microsomes) | IC50 (Cytochrome P450 2D6) | microsomal CLint [3] | IC50 [4] | other results
CC(C)(C)OC(=O)NCCN1CCN(CC(=O)NC23CC4CC(CC(C4)C2)C3)CC1 | 1200 nM | – | – | – | – | –
CC(C)(C)CS(=O)(=O)NCCN1CCN(CC(=O)NC23CC4CC(CC(C4)C2)C3)CC1 | 900 nM | – | – | – | – | Kp uu at 4 h [2]: 0.3
CC(C)(C)NC(=O)NCCN1CCC(CNC(=O)c2cc(Cl)cc(Cl)c2)C1 (configuration not stated) | 400 nM | Active | 1000 nM | < 5 µL/min/mg | 5800 nM | –
CC(C)(C)NC(=O)NCCN1CCC(NC(=O)c2cc(Cl)cc(Cl)c2)C1 (configuration not stated) | 800 nM | Active | 2600 nM | 15 µL/min/mg | 6600 nM | –
CC(C)(C)NC(=O)NCCN1CCN(CC(=O)Nc2cc(Cl)cc(Cl)c2)CC1 | 300 nM | – | 8000 nM | 29 µL/min/mg | 1600 nM | –
CC(C)(C)NC(=O)NCCN1CCCC(NC(=O)c2cc(Cl)cc(Cl)c2)C1 (configuration not stated) | 500 nM | Active | 8300 nM | 48 µL/min/mg | 4100 nM | –
CC(C)(C)NC(=O)NCCN1CC(NC(=O)c2cc(Cl)cc(Cl)c2)C1 | 800 nM | Active | 4500 nM | 4 µL/min/mg | – | –
CC(C)(C)C(=O)NCCCN1CCN(CC(=O)NC23CC4CC(CC(C4)C2)C3)CC1 | 1300 nM | – | – | – | – | –
COCC(=O)O[C@]1(CCN(C)CCCc2nc3ccccc3[nH]2)CCc2cc(F)ccc2[C@@H]1C(C)C [MIBEFRADIL] | – | Active | 63 nM | 56.5 µL/min/mg | – | –
CC(C)(C)NC(=O)NCCN1CCC(CNC(=O)c2cc(Cl)cc(Cl)c2)CC1 | 500 nM | Not Active | 3400 nM | < 5 µL/min/mg | 13000 nM | –
CC(C)(C)NC(=O)CN1CCN(CC(=O)NC23CC4CC(CC(C4)C2)C3)CC1 | 1000 nM | – | – | – | – | Kp uu at 4 h [2]: 0.4
CC(C)(C)NC(=O)NCCN1CCC(CO)(CNC(=O)c2cc(Cl)cc(Cl)c2)CC1 | 600 nM | Not Active | 13000 nM | 7 µL/min/mg | > 33000 nM | Activity (Canis familiaris): Dose-dependent effect; bioavailability [5]: 22%; clearance [6]: 17 mL/min/kg; solubility [7]: 460 µM (≈ 211 µg/mL); IC50 [8]: > 33000 nM; IC50 [9]: > 33000 nM; IC50 [10]: > 33000 nM; IC50 [11]: > 33000 nM; IC50 [12]: > 31600 nM; IC50 [13]: 1200 nM
CC(C)(C)NC(=O)NCCN1CCN(CC(=O)NC23CC4CC(CC(C4)C2)C3)CC1 | 500 nM | – | > 20000 nM | 100 µL/min/mg | > 33000 nM | Kp uu at 4 h [2]: 0.02
CC(C)(C)C(=O)NCCN1CCN(CC(=O)NC23CC4CC(CC(C4)C2)C3)CC1 | 3000 nM | – | – | – | – | –
CC(C)(C)NC(=O)NCCN1CCCC(CNC(=O)c2cc(Cl)cc(Cl)c2)C1 (configuration not stated) | 500 nM | Not Active | 1600 nM | 16 µL/min/mg | – | –
CC(C)(C)NC(=O)NCCN1CCC(O)(CNC(=O)c2cc(Cl)cc(Cl)c2)CC1 | 600 nM | Active | 14000 nM | 6 µL/min/mg | > 33000 nM | –
CC(C)(C)NCCN1CCN(CC(=O)NC23CC4CC(CC(C4)C2)C3)CC1 | 4900 nM | – | – | – | – | –
CC(C)(C)S(=O)(=O)CCCN1CCN(CC(=O)NC23CC4CC(CC(C4)C2)C3)CC1 | 2400 nM | – | – | – | – | Kp uu at 4 h [2]: 0.3
CC(C)(C)NC(=O)NCCN1CCOC(CNC(=O)c2cc(Cl)cc(Cl)c2)C1 (configuration not stated) | 3300 nM | Active | > 20000 nM | 47 µL/min/mg | > 33000 nM | –
O=C(CN1CCN(CCC2CCOCC2)CC1)NC12CC3CC(CC(C3)C1)C2 | – | – | – | – | – | Kp uu at 4 h [2]: 1.2
CC(C)(C)NC(=O)NCCCN1CCN(CC(=O)NC23CC4CC(CC(C4)C2)C3)CC1 | 1200 nM | – | – | – | – | –
